Data published in PubChem BioAssay AID256 (DTP/NCI, 2004).
Values joined by “and” are separate entries in the source; they are usually repeats but may differ in a detail not shown here. Equal values may be shown once. Toxic doses and inconclusive results are not listed.

System: CD2F1 mice, L1210 leukemia ip, survival T/C
Assay: NCI In Vivo Anticancer Drug Screen. Data for tumor model L1210 Leukemia (intraperitoneal) in CD2F1 (CDF1) mice
Conditions: higher = longer survival
Procedure, shortened: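 Each value reflects a quotient of treated over vehicle control outcomes in mice with a transplanted tumor.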

O=c1[nH]cc(F)c(=O)[nH]1
T/C (endpoint: mean survival time, dose: 2.5 mg/kg/injection, schedule: Q01DX009 (ip), vehicle: saline): 113 % of control | T/C (endpoint: mean survival time, dose: 3.75 mg/kg/injection, schedule: Q01DX003 (ip), vehicle: saline): 116 % of control | T/C (endpoint: mean survival time, dose: 3.75 mg/kg/injection, schedule: Q01DX005 (ip), vehicle: saline): 114 % of control and 122 % of control | T/C (endpoint: mean survival time, dose: 4.0 mg/kg/injection, schedule: Q03HX016 (ip), vehicle: water): 167 % of control | T/C (endpoint: mean survival time, dose: 4.0 mg/kg/injection, schedule: Q03HX024 (ip), vehicle: water): 153 % of control | T/C (endpoint: mean survival time, dose: 5.0 mg/kg/injection, schedule: Q01DX009 (ip), vehicle: saline): 124 % of control | T/C (endpoint: mean survival time, dose: 7.5 mg/kg/injection, schedule: Q03HX024 (ip), vehicle: saline): 157 % of control | T/C (endpoint: mean survival time, dose: 8.0 mg/kg/injection, schedule: Q01DX009 (ip), vehicle: water): 151 % of control | T/C (endpoint: mean survival time, dose: 8.0 mg/kg/injection, schedule: Q03HX016 (ip), vehicle: water): 154 % of control | T/C (endpoint: mean survival time, dose: 10.0 mg/kg/injection, schedule: Q01DX002 (ip), vehicle: saline): 124 % of control | T/C (endpoint: mean survival time, dose: 10.0 mg/kg/injection, schedule: Q01DX006 (ip), vehicle: saline): 161 % of control | T/C (endpoint: mean survival time, dose: 10.0 mg/kg/injection, schedule: Q03HX016 (ip), vehicle: saline): 152 % of control | T/C (endpoint: mean survival time, dose: 10.8 mg/kg/injection, schedule: Q01DX009 (ip), vehicle: saline): 150 % of control | T/C (endpoint: mean survival time, dose: 12.0 mg/kg/injection, schedule: Q04DX003 (ip), vehicle: saline): 121 % of control | T/C (endpoint: mean survival time, dose: 12.5 mg/kg/injection, schedule: Q03HX024 (oral), vehicle: saline): 122 % of control | T/C (endpoint: mean survival time, dose: 13.3 mg/kg/injection, schedule: Q01DX009 (ip), vehicle: saline sonified): 168 % of control | T/C (endpoint: mean survival time, dose: 14.0 mg/kg/injection, schedule: Q01DX009 (ip), vehicle: saline sonified): 160 % of control | T/C (endpoint: mean survival time, dose: 14.0 mg/kg/injection, schedule: Q01DX009 (ip), vehicle: saline with Tween-80): 157 % of control and 172 % of control | T/C (endpoint: mean survival time, dose: 15.0 mg/kg/injection, schedule: Q01DX005 (ip), vehicle: saline): 158 % of control and 169 % of control | T/C (endpoint: mean survival time, dose: 16.0 mg/kg/injection, schedule: Q01DX009 (oral), vehicle: saline): 114 % of control | T/C (endpoint: mean survival time, dose: 16.0 mg/kg/injection, schedule: Q03HX008 (ip), vehicle: water): 163 % of control | T/C (endpoint: mean survival time, dose: 16.0 mg/kg/injection, schedule: Q03HX024 (ip), vehicle: water): 120 % of control | T/C (endpoint: mean survival time, dose: 20.0 mg/kg/injection, schedule: Q01DX009 (ip), vehicle: saline sonified): 169 % of control | T/C (endpoint: mean survival time, dose: 20.0 mg/kg/injection, schedule: Q03DX003 (ip), vehicle: saline): 152 % of control | T/C (endpoint: mean survival time, dose: 22.5 mg/kg/injection, schedule: Q01DX009 (ip), vehicle: saline): 117 % of control | T/C (endpoint: mean survival time, dose: 25.0 mg/kg/injection, schedule: Q01DX001 (ip), vehicle: saline): 117 % of control | T/C (endpoint: mean survival time, dose: 25.0 mg/kg/injection, schedule: Q03HX024 (oral), vehicle: saline): 118 % of control | T/C (endpoint: mean survival time, dose: 30.0 mg/kg/injection, schedule: Q01DX003 (ip), vehicle: saline): 168 % of control | T/C (endpoint: mean survival time, dose: 30.0 mg/kg/injection, schedule: Q01DX003 (oral), vehicle: saline): 123 % of control | T/C (endpoint: mean survival time, dose: 30.0 mg/kg/injection, schedule: Q01DX005 (oral), vehicle: saline): 119 % of control | T/C (endpoint: mean survival time, dose: 30.0 mg/kg/injection, schedule: Q01DX009 (ip), vehicle: saline sonified): 152 % of control | T/C (endpoint: mean survival time, dose: 30.0 mg/kg/injection, schedule: Q04DX003 (ip), vehicle: saline sonified): 152 % of control | T/C (endpoint: mean survival time, dose: 32.0 mg/kg/injection, schedule: Q04DX003 (ip), vehicle: water): 169 % of control | T/C (endpoint: mean survival time, dose: 32.0 mg/kg/injection, schedule: Q08DX002 (ip), vehicle: water): 154 % of control | T/C (endpoint: mean survival time, dose: 40.0 mg/kg/injection, schedule: Q04DX003 (ip), vehicle: saline sonified): 165 % of control | T/C (endpoint: mean survival time, dose: 40.0 mg/kg/injection, schedule: Q04DX003 (ip), vehicle: saline with Tween-80): 160 % of control and 163 % of control and 172 % of control | T/C (endpoint: mean survival time, dose: 44.0 mg/kg/injection, schedule: Q04DX003 (ip), vehicle: saline): 172 % of control | T/C (endpoint: mean survival time, dose: 50.0 mg/kg/injection, schedule: Q01DX009 (oral), vehicle: saline): 116 % of control | T/C (endpoint: mean survival time, dose: 50.0 mg/kg/injection, schedule: Q03HX008 (oral), vehicle: saline): 122 % of control | T/C (endpoint: mean survival time, dose: 50.0 mg/kg/injection, schedule: Q04DX003 (ip), vehicle: saline): 172 % of control | T/C (endpoint: mean survival time, dose: 60.0 mg/kg/injection, schedule: Q01DX005 (oral), vehicle: saline): 117 % of control | T/C (endpoint: mean survival time, dose: 60.0 mg/kg/injection, schedule: Q03HX024 (ip), vehicle: saline): 164 % of control | T/C (endpoint: mean survival time, dose: 60.0 mg/kg/injection, schedule: Q04DX003 (ip), vehicle: saline sonified): 164 % of control | T/C (endpoint: mean survival time, dose: 60.0 mg/kg/injection, schedule: Q04DX003 (ip), vehicle: saline with Tween-80): 164 % of control | T/C (endpoint: mean survival time, dose: 62.5 mg/kg/injection, schedule: Q01DX001 (oral), vehicle: saline): 113 % of control | T/C (endpoint: mean survival time, dose: 64.0 mg/kg/injection, schedule: Q01DX009 (oral), vehicle: saline): 119 % of control | T/C (endpoint: mean survival time, dose: 64.0 mg/kg/injection, schedule: Q04DX003 (ip), vehicle: water): 160 % of control | T/C (endpoint: mean survival time, dose: 64.0 mg/kg/injection, schedule: Q08DX002 (ip), vehicle: water): 164 % of control | T/C (endpoint: mean survival time, dose: 67.5 mg/kg/injection, schedule: Q04DX003 (ip), vehicle: saline): 150 % of control | T/C (endpoint: mean survival time, dose: 80.0 mg/kg/injection, schedule: Q03HX024 (ip), vehicle: saline): 176 % of control | T/C (endpoint: mean survival time, dose: 80.0 mg/kg/injection, schedule: Q04DX003 (ip), vehicle: saline sonified): 160 % of control | T/C (endpoint: mean survival time, dose: 100.0 mg/kg/injection, schedule: Q08DX002 (oral), vehicle: saline): 151 % of control | T/C (endpoint: mean survival time, dose: 128.0 mg/kg/injection, schedule: Q04DX003 (ip), vehicle: water): 120 % of control | T/C (endpoint: mean survival time, dose: 128.0 mg/kg/injection, schedule: Q08DX002 (ip), vehicle: water): 167 % of control | T/C (endpoint: mean survival time, dose: 132.0 mg/kg/injection, schedule: Q01DX001 (ip), vehicle: saline): 153 % of control | T/C (endpoint: mean survival time, dose: 166.0 mg/kg/injection, schedule: Q01DX001 (ip), vehicle: saline with Tween-80): 150 % of control | T/C (endpoint: mean survival time, dose: 200.0 mg/kg/injection, schedule: Q01DX001 (oral), vehicle: saline): 118 % of control | T/C (endpoint: mean survival time, dose: 200.0 mg/kg/injection, schedule: Q04DX003 (ip), vehicle: saline): 159 % of control | T/C (endpoint: mean survival time, dose: 256.0 mg/kg/injection, schedule: Q08DX002 (ip), vehicle: water): 120 % of control | T/C (endpoint: mean survival time, dose: 300.0 mg/kg/injection, schedule: Q01DX001 (ip), vehicle: saline with Tween-80): 153 % of control | T/C (endpoint: mean survival time, dose: 338.0 mg/kg/injection, schedule: Q01DX001 (ip), vehicle: saline): 150 % of control | T/C (endpoint: mean survival time, dose: 400.0 mg/kg/injection, schedule: Q04DX003 (ip), vehicle: saline with Tween-80): 117 % of control | T/C (endpoint: mean survival time, dose: 400.0 mg/kg/injection, schedule: Q04DX003 (ip), vehicle: saline): 161 % of control | T/C (endpoint: median survival time, dose: 6.48 mg/kg/injection, schedule: Q01DX009 (ip), vehicle: saline): 120 % of control | T/C (endpoint: median survival time, dose: 7.5 mg/kg/injection, schedule: Q01DX009 (ip), vehicle: saline): 153 % of control | T/C (endpoint: median survival time, dose: 7.5 mg/kg/injection, schedule: Q## X009 (ip), vehicle: saline): 153 % of control | T/C (endpoint: median survival time, dose: 10.0 mg/kg/injection, schedule: Q01DX001 (ip), vehicle: saline): 152 % of control | T/C (endpoint: median survival time, dose: 13.0 mg/kg/injection, schedule: Q04DX002 (ip), vehicle: saline): 121 % of control | T/C (endpoint: median survival time, dose: 13.0 mg/kg/injection, schedule: Q04DX003 (ip), vehicle: saline): 121 % of control | T/C (endpoint: median survival time, dose: 14.3 mg/kg/injection, schedule: Q04DX003 (ip), vehicle: saline): 124 % of control | T/C (endpoint: median survival time, dose: 15.0 mg/kg/injection, schedule: Q01DX005 (ip), vehicle: saline): 165 % of control | T/C (endpoint: median survival time, dose: 15.0 mg/kg/injection, schedule: Q01DX009 (ip), vehicle: saline): 167 % of control | T/C (endpoint: median survival time, dose: 15.0 mg/kg/injection, schedule: Q## X009 (ip), vehicle: saline): 167 % of control | T/C (endpoint: median survival time, dose: 20.0 mg/kg/injection, schedule: Q01DX001 (ip), vehicle: saline): 154 % of control | T/C (endpoint: median survival time, dose: 21.6 mg/kg/injection, schedule: Q04DX002 (ip), vehicle: saline): 123 % of control | T/C (endpoint: median survival time, dose: 30.0 mg/kg/injection, schedule: Q01DX009 (ip), vehicle: saline): 173 % of control | T/C (endpoint: median survival time, dose: 36.0 mg/kg/injection, schedule: Q04DX003 (ip), vehicle: saline): 160 % of control and 167 % of control | T/C (endpoint: median survival time, dose: 39.6 mg/kg/injection, schedule: Q04DX003 (ip), vehicle: saline): 164 % of control | T/C (endpoint: median survival time, dose: 40.0 mg/kg/injection, schedule: Q04DX002 (ip), vehicle: saline): 162 % of control | T/C (endpoint: median survival time, dose: 80.0 mg/kg/injection, schedule: Q04DX002 (ip), vehicle: saline): 166 % of control | T/C (endpoint: median survival time, dose: 100.0 mg/kg/injection, schedule: Q04DX003 (ip), vehicle: saline): 151 % of control | T/C (endpoint: median survival time, dose: 300.0 mg/kg/injection, schedule: Q01DX001 (ip), vehicle: Klucel (hydroxypropylcellulose) (HPC)): 174 % of control
